pKd: −log10 of the molar value. “And” between values parts separate entries of the source, which are not always exact repeats. Equal entries are not always repeated. Where two headings read alike, the source gives them in different places. Residues, ends and D or L forms follow the SMILES beside them. No end group written: not given here.
What was measured:
Test in all cases: Fluorescence polarization direct binding
Bcl-2 = target: T1, Bcl-2 (Homo sapiens, UniProt P10415, DEL53-91); conditions: for Kd: read-out: Best-fit KD, Bcl-2; for pKd: benchmark classification of peptides newly characterized in this study, read-out: Binder class, Bcl-2
T1 construct: myc- Bcl-2 FP; made in house
Experimental: (§1) Peptides were purified by reverse-phase HPLC using a C18 column and a linear water/acetonitrile gradient. We re-analyzed the purified peptide by mass spectrometry if there was not a single well-defined peak in HPLC chromatogram.
(§2) Fluorescence polarization (FP) assays were done at 25°C in assay buffer (20 mM NaPO4, 50 mM NaCl, 1 mM EDTA, 0.001% Triton X (v/v), pH 7.8). […] For all FP experiments, the total well volume was 120 µl. […] Anisotropy was measured using a Spectramax M5 plate reader from Molecular Devices.
(§3) Direct binding curves were fit using Pylab/Scipy/Optimize to a single-site binding model utilized previously.
(§4) ^1Best-fit KD values determined by combining all replicate titration curves and fitting to a direct binding model (see Methods). […] Values with an X followed by a number indicate the highest concentration (the number, in nM) for which signal was measured yet no binding was detected.

Bcl-w = target: T2, Bcl-w (Homo sapiens, UniProt Q92843, Q133R); conditions: for Kd: read-out: Best-fit KD, Bcl-w; for pKd: benchmark classification of peptides newly characterized in this study, read-out: Binder class, Bcl-w
T2 construct: myc-Bcl-w SPOT array & FP; made in house
T2 sequence (Q92843 with tags, fused parts or gaps Q133R): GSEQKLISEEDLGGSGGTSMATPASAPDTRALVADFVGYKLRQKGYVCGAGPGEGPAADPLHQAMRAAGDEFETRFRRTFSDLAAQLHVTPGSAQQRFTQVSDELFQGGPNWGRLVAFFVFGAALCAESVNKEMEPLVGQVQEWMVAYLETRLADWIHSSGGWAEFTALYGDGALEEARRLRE
Experimental: as §1, §2, §3, §4

Bfl-1 = target: T3, Bfl-1 (Homo sapiens, UniProt Q16548); conditions: for Kd: FP direct binding, 10 nM FAM-labeled peptide, receptor titrated, 25°C, pH 7.8, fit of all replicate titrations, X+number in a cell = highest concentration (nM) measured with no binding detected, given here as >, SPNS1 fit to raw fluorescence, read-out: Best-fit KD, Bfl-1; for pKd: benchmark classification of peptides newly characterized in this study, read-out: Binder class, Bfl-1
T3 construct: myc- Bfl-1 SPOT array & FP; made in house
T3 sequence (Q16548 with tags, fused parts or gaps): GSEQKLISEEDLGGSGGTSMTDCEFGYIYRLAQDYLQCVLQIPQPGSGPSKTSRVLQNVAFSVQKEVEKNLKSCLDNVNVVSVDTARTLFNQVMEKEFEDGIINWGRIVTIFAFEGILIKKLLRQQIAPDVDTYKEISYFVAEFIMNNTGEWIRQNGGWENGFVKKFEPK
Experimental: as §1, §2, §3, §4

Mcl-1 = target: T4, Mcl-1 (Homo sapiens, UniProt Q07820); conditions: for pKd: Binder class, Mcl-1, benchmark classification of peptides newly characterized in this study; for Kd: FP direct binding, 10 nM FAM-labeled peptide, receptor titrated, 25°C, pH 7.8, fit of all replicate titrations, X+number in a cell = highest concentration (nM) measured with no binding detected, given here as >, SPNS1 fit to raw fluorescence
T4 construct: myc-Mcl-1 SPOT array & FP; made in house
Experimental: as §1, §2, §3, §4

Bcl-xL = target: T5, Bcl-xL (Homo sapiens, UniProt Q07817); conditions: for Kd: read-out: Best-fit KD, Bcl-xL; for pKd: benchmark classification of peptides newly characterized in this study, read-out: Binder class, Bcl-xL
T5 construct: myc-Bcl-xL SPOT array & FP; made in house
Experimental: as §1, §2, §3, §4

[1] = FP direct binding, 10 nM FAM-labeled peptide, receptor titrated, 25°C, pH 7.8, fit of all replicate titrations, X+number in a cell = highest concentration (nM) measured with no binding detected, given here as >, SPNS1 fit to raw fluorescence

T1 sequence (P10415 with tags, fused parts or gaps DEL53-91): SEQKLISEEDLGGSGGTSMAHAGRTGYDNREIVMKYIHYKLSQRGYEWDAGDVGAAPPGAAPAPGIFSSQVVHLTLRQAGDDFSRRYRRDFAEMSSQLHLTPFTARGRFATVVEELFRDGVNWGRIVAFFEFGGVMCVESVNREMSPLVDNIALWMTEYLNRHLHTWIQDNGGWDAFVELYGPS
T5 sequence (Q07817 with tags, fused parts or gaps): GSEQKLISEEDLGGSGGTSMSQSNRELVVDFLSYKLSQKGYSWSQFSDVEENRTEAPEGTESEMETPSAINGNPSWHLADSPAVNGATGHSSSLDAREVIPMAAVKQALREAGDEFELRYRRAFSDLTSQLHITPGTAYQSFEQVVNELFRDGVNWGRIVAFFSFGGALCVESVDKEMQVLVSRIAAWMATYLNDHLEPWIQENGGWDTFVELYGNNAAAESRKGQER
T4 sequence (Q07820 with tags, fused parts or gaps): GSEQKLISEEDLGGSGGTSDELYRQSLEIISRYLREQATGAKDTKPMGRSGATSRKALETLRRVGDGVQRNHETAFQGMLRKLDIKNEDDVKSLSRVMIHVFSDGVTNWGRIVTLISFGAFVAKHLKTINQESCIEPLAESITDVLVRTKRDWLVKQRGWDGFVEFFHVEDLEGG

Row | Molecule | Kd (Bcl-2; [1]) | pKd (Bcl-2) | Kd (Bcl-w; [1]) | pKd (Bcl-w) | Kd (Bfl-1) | pKd (Bfl-1) | pKd (Mcl-1) | Kd (Mcl-1) | Kd (Bcl-xL; [1]) | Best-fit KD, Bcl-2 (Bcl-2; [1]) | Best-fit KD, Bcl-w (Bcl-w; [1]) | Best-fit KD, Bcl-xL (Bcl-xL; [1]) | pKd (Bcl-xL)
1 | CC[C@H](C)[C@H](NC(=O)[C@@H](NC(=O)[C@H](CCSC)NC(=O)CNC(=O)[C@H](CCCNC(=N)N)NC(=O)[C@H](CO)NC(=O)[C@H](CCC(N)=O)NC(=O)[C@H](CC(C)C)NC(=O)[C@H](CC(C)C)NC(=O)[C@H](CO)NC(=O)CNC(=O)[C@H](CS)NC(=O)[C@@H](NC(=O)[C@H](CC(=O)O)NC(=O)[C@H](CCCNC(=N)N)NC(=O)[C@H](CCSC)NC(=O)[C@H](CC(C)C)NC(=O)[C@H](CCCCN)NC(=O)[C@H](CO)NC(=O)[C@@H](NC(=O)[C@H](CS)NC(=O)[C@H](CO)NC(=O)[C@H](CC(C)C)NC(=O)[C@H](CCC(N)=O)NC(=O)[C@H](CS)NC(=O)[C@@H](N)CC(C)C)C(C)C)C(C)C)C(C)C)C(N)=O [FBXO30] (H-LCQLSCVSKLMRDVCGSLLQSRGMVI-NH2) | 2560 nM |  | 3280 nM |  | > 10000 nM |  | 5.00 to 6.00 | > 10000 nM | > 10000 nM |  |  |  | 
2 | CC[C@H](C)[C@H](NC(=O)[C@H](CCC(=O)O)NC(=O)[C@H](C)NC(=O)[C@H](CO)NC(=O)[C@H](Cc1ccccc1)NC(=O)[C@H](CCC(N)=O)NC(=O)[C@H](CC(=O)O)NC(=O)[C@H](C)NC(=O)[C@H](CC(C)C)NC(=O)[C@H](Cc1c[nH]cn1)NC(=O)[C@H](CCCNC(=N)N)NC(=O)[C@H](CC(C)C)NC(=O)[C@H](CCC(=O)O)NC(=O)[C@H](CCC(N)=O)NC(=O)[C@H](C)NC(=O)[C@H](CCCCN)NC(=O)[C@@H]1CCCN1C(=O)[C@H](CCCNC(=N)N)NC(=O)[C@@H](NC(=O)[C@@H](N)CO)[C@@H](C)CC)C(=O)N[C@@H](C)C(=O)N[C@@H](CCCNC(=N)N)C(=O)N[C@@H](CCCNC(=N)N)C(N)=O [MCF2L] | 6 nM | > 6.00 | 7 nM | > 6.00 | > 4100 nM | < 5.00 | < 5.00 | > 4000 nM | 4 nM | bound tightly | bound tightly | bound tightly | > 6.00
3 | AIRPRAVELRHLADDFINGNKKK-NH2 [MCF2L2] | 60 nM | > 6.00 | 1120 nM | 5.00 to 6.00 | > 3370 nM | < 5.00 | < 5.00 | > 4000 nM | 292 nM |  |  |  | > 6.00
4 | APYYLSRNLKQQADIIFMPYNYL-NH2 [RTEL1] | 342 nM | 5.00 to 6.00 | > 100000 nM | 5.00 to 6.00 | > 4000 nM | < 5.00 | 5.00 to 6.00 | > 4000 nM | 1380 nM |  |  |  | 5.00 to 6.00

Results, then the molecule that gave them:

Row | Kd (Bcl-2; [1]) | pKd (Bcl-2) | Kd (Bcl-w; [1]) | pKd (Bcl-w) | Kd (Bfl-1) | pKd (Bfl-1) | pKd (Mcl-1) | Kd (Mcl-1) | Kd (Bcl-xL; [1]) | Best-fit KD, Bcl-2 (Bcl-2; [1]) | Best-fit KD, Bcl-w (Bcl-w; [1]) | Best-fit KD, Bcl-xL (Bcl-xL; [1]) | pKd (Bcl-xL) | Molecule
5 | < 30 nM and 0.3 nM | > 6.00 | < 30 nM and 13 nM | > 6.00 | < 30 nM and 1 nM | > 6.00 | > 6.00 | < 30 nM and 23 nM |  |  |  |  |  | CC[C@H](C)[C@H](N)C(=O)N[C@H](C(=O)N[C@@H](CCC(N)=O)C(=O)N[C@@H](CCSC)C(=O)N[C@H](C(=O)N[C@H](C(=O)N[C@@H](CCC(=O)O)C(=O)N[C@@H](CC(C)C)C(=O)N[C@@H](CC(C)C)C(=O)N[C@@H](CCCCN)C(=O)N[C@@H](CCCNC(=N)N)C(=O)N[C@H](C(=O)NCC(=O)N[C@@H](CC(=O)O)C(=O)N[C@@H](CCC(N)=O)C(=O)N[C@@H](Cc1c[nH]c2ccccc12)C(=O)N[C@@H](CCC(=O)O)C(=O)N[C@@H](CCC(=O)O)C(=O)N[C@@H](CCC(=O)O)C(=O)N[C@@H](CCC(N)=O)C(=O)N[C@@H](CO)C(=O)N[C@@H](CC(C)C)C(=O)N[C@@H](C)C(N)=O)C(C)C)C(C)C)[C@@H](C)CC)[C@@H](C)CC [C6orf222]
6 | 562 nM |  | > 4000 nM |  | > 4000 nM |  | < 5.00 | > 10000 nM | 2720 nM |  |  |  |  | CC(C)C[C@H](NC(=O)CNC(=O)[C@@H](NC(=O)[C@H](CCCCN)NC(=O)[C@H](CCCCN)NC(=O)[C@H](CC(N)=O)NC(=O)[C@H](CCC(=O)O)NC(=O)[C@H](CC(=O)O)NC(=O)[C@@H](N)[C@@H](C)O)C(C)C)C(=O)N[C@@H](C)C(=O)N[C@@H](CC(C)C)C(=O)N[C@@H](CCCCN)C(=O)N[C@@H](CC(=O)O)C(=O)N[C@@H](CC(C)C)C(=O)N[C@@H](C)C(=O)N[C@@H](CCCCN)C(=O)N[C@@H](CCC(N)=O)C(=O)N[C@@H](Cc1ccc(O)cc1)C(=O)N[C@@H](CO)C(=O)N[C@@H](CC(=O)O)C(=O)N[C@@H](CCCNC(=N)N)C(=O)N[C@@H](CC(C)C)C(=O)N[C@@H](CCC(=O)O)C(=O)N[C@@H](CS)C(=O)N[C@@H](CS)C(=O)N[C@@H](CCC(=O)O)C(N)=O [NUB1] (H-TDENKKVGLALKDLAKQYSDRLECCE-NH2)
7 | 2060 nM | < 5.00 | > 4500 nM | < 5.00 | > 4670 nM | < 5.00 | 5.00 to 6.00 | > 4000 nM | > 100000 nM |  |  |  | < 5.00 | ATKRETAATFLKKVAKEFGFQNNGFS-NH2 [NPLOC4]
8 | 266 nM | > 6.00 | 1230 nM | 5.00 to 6.00 | 1130 nM | 5.00 to 6.00 | < 5.00 | > 10000 nM | 1010 nM |  |  |  | 5.00 to 6.00 | ATRRLSGFLRTLADRLEGTKELL-NH2 [MINA]

Reference: PMC4072508, “Genome-Wide Prediction and Validation of Peptides That Bind Human Prosurvival Bcl-2 Proteins” (PLoS Computational Biology, 2014)
